IC50 and inhibition data for five molecules are collected here from the kinase profiling compilation of Christmann-Franck et al. (2016).

SMILES strings stand for the structures.

Assay [1] concerns the target MET (human) (UniProt P08581). Description: TR FRET.
For assay [2], the target named is MET (human) (UniProt P08581). Description: Caliper, Mobility shift assay off-chip.
The target in the next assay is CSNK1A1 (human) (UniProt P48729). Description: SelectScreen, TR FRET.
A further assay has as its target ACVR1B (human) (UniProt P36896). Description: SelectScreen, TR FRET.
The target of the next assay is PRKCQ (human) (UniProt Q04759). Description: SelectScreen, TR FRET.
The next assay addresses KDR (human) (UniProt P35968). Description: SelectScreen, TR FRET.
In another assay the target is NTRK3 (human) (UniProt Q16288). Description: SelectScreen, TR FRET.
The target of the next assay is KIT (human) (UniProt P10721). Description: SelectScreen, TR FRET.
The next assay addresses INSR (human) (UniProt P06213). Description: SelectScreen, TR FRET.
Another assay concerns the target PAK1 (human) (UniProt Q13153). Description: SelectScreen, TR FRET.
Another assay deals with GSK3B (human) (UniProt P49841). Description: SelectScreen, TR FRET.
For a further assay, the target named is NEK2 (human) (UniProt P51955). Description: SelectScreen, TR FRET.
The next assay has as its target GRK6 (human) (UniProt P43250). Description: SelectScreen, TR FRET.
For the next assay, the target named is PLK1 (human) (UniProt P53350). Description: SelectScreen, TR FRET.
For another assay, the target named is SRPK1 (human) (UniProt Q96SB4). Description: SelectScreen, TR FRET.
The target of the next assay is MAPKAPK2 (human) (UniProt P49137). Description: SelectScreen, TR FRET.
A further assay has as its target PIM1 (human) (UniProt P11309). Description: SelectScreen, TR FRET.
The target of another assay is CHEK1 (human) (UniProt O14757). Description: SelectScreen, TR FRET.
A further assay deals with MAP2K1 (human) (UniProt Q02750). Description: SelectScreen, TR FRET.
The target in a further assay is MAPK1 (human) (UniProt P28482). Description: SelectScreen, TR FRET.
For a further assay, the target named is AKT1 (human) (UniProt P31749). Description: SelectScreen, TR FRET.
Another assay deals with AKT3 (human) (UniProt Q9Y243). Description: SelectScreen, TR FRET.
Another assay concerns the target EGFR (human) (UniProt P00533). Description: SelectScreen, TR FRET.
The target of a further assay is DAPK3 (human) (UniProt O43293). Description: Caliper, Mobility shift assay off-chip.
The test system of assay [3] is KIT (human), P10721 [T670I]. Description: Caliper, Mobility shift assay off-chip.
Assay [4] addresses PRKAA2 PRKAB1 PRKAG1 (human) (UniProt Q9Y478+P54646+P54619). Description: Caliper, Mobility shift assay off-chip.
The subject of assay [5] is RET (human), P07949 [Y791F]. Description: Caliper, Mobility shift assay off-chip.
In another assay the target is JAK2 JH1 JH2 (human) (UniProt O60674). Description: Caliper, Mobility shift assay off-chip.
A further assay deals with MST1R (human) (UniProt Q04912). Description: Caliper, Mobility shift assay off-chip.
Sequence of MST1R (human) (Q04912 whole entry, looked up): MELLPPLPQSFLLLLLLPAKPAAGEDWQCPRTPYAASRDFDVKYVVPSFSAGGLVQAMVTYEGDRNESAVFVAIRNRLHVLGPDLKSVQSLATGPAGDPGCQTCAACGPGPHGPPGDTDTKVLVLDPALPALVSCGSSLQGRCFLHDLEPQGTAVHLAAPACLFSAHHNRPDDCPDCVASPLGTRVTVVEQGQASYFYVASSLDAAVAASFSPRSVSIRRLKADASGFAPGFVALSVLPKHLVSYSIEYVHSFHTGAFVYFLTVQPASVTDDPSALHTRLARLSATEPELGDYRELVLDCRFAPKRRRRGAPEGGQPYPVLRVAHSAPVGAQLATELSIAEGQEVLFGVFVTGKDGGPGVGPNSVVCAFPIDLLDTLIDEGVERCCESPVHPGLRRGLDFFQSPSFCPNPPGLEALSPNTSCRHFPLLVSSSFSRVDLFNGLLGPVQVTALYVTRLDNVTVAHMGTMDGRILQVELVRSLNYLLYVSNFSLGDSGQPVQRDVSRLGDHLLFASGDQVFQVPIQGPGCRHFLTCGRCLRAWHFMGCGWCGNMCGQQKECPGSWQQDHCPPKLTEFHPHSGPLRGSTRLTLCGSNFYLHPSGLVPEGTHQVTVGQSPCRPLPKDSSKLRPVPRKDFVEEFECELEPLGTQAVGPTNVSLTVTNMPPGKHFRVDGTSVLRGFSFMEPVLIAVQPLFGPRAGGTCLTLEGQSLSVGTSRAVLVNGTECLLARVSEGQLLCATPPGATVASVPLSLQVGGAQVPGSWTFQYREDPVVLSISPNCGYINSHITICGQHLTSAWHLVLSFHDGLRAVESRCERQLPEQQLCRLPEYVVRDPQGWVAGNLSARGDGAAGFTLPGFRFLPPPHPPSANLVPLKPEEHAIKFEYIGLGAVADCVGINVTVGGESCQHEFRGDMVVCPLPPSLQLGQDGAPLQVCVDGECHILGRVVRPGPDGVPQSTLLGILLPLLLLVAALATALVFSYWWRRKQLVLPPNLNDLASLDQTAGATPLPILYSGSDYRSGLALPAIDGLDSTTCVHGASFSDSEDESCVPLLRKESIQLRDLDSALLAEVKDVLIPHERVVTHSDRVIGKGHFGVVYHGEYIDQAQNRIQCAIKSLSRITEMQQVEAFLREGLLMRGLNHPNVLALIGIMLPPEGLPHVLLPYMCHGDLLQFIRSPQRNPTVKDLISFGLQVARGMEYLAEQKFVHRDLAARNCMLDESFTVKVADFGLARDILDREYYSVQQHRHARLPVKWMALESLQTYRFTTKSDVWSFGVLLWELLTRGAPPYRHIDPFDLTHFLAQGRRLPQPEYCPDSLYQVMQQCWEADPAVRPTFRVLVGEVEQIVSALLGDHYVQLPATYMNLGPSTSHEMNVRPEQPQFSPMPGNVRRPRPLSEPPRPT

Sequence of RET (human), P07949 [Y791F] (P07949 whole entry Y791F, looked up): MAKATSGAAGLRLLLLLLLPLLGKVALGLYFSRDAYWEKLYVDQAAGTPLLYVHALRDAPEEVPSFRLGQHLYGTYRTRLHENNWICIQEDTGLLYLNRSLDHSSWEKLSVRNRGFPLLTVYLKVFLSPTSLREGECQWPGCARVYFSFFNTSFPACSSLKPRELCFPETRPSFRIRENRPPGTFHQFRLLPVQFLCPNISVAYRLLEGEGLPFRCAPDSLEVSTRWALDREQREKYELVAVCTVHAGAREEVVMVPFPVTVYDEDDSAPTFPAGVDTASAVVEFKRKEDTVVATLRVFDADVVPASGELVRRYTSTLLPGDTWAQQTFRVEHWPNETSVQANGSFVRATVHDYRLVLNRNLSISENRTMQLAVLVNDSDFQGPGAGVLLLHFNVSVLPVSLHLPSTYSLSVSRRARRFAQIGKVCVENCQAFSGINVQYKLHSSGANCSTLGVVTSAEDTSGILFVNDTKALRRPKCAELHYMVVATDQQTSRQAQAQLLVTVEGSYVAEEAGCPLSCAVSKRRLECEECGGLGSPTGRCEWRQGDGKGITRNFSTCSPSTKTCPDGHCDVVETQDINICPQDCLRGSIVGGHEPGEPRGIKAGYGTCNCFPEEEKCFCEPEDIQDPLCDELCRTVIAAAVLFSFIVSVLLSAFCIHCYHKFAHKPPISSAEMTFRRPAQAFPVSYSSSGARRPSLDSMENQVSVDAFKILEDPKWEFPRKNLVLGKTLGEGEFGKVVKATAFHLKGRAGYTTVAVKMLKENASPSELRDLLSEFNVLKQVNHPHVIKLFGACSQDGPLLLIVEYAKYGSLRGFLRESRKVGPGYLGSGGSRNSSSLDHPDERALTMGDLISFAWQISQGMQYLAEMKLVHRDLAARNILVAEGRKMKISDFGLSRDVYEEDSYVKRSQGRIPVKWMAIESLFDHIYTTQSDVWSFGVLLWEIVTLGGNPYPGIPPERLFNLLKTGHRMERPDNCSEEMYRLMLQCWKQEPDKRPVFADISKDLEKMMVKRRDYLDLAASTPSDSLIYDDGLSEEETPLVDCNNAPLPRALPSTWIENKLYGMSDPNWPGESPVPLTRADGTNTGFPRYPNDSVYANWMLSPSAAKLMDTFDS
Sequence of MAPKAPK2 (human) (P49137 whole entry, looked up): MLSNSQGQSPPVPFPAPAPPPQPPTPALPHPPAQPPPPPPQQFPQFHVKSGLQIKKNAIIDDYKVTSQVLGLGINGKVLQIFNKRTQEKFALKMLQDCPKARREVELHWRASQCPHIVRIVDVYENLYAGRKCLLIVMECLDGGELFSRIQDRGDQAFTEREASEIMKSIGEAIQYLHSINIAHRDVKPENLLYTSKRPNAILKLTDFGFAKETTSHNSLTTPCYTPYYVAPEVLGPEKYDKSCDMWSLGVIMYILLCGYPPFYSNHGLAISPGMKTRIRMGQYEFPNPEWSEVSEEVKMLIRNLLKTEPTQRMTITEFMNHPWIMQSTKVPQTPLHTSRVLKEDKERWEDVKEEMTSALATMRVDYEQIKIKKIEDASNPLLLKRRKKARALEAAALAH
Sequence of JAK2 JH1 JH2 (human) (O60674 whole entry, looked up): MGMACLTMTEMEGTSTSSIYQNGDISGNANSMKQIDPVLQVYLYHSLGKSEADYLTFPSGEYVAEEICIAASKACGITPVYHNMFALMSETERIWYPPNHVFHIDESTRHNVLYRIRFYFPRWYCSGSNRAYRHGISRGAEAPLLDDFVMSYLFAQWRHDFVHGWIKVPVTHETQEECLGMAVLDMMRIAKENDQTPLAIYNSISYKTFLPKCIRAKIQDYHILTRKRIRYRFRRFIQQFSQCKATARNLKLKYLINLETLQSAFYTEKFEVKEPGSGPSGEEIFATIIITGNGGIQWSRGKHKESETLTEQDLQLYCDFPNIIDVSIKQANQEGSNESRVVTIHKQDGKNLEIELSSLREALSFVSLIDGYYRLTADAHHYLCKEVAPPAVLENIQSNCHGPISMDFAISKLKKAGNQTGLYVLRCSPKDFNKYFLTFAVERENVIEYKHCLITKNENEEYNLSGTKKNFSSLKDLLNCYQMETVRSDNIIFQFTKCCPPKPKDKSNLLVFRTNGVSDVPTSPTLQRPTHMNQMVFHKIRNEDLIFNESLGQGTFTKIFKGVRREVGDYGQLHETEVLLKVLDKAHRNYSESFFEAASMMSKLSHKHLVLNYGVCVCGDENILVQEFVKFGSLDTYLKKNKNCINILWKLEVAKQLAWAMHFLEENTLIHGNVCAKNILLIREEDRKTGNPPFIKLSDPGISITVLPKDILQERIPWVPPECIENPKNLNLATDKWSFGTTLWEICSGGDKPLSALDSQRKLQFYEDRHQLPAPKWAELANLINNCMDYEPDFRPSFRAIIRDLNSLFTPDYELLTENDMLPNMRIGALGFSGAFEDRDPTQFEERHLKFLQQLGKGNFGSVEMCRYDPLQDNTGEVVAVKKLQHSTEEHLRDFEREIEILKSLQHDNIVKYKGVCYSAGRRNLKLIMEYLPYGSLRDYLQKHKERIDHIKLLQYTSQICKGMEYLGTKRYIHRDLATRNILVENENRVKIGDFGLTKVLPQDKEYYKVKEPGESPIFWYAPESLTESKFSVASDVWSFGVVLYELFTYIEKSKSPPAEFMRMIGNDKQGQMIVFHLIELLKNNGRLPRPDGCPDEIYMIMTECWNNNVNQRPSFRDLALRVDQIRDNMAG
Sequence of CSNK1A1 (human) (P48729 whole entry, looked up): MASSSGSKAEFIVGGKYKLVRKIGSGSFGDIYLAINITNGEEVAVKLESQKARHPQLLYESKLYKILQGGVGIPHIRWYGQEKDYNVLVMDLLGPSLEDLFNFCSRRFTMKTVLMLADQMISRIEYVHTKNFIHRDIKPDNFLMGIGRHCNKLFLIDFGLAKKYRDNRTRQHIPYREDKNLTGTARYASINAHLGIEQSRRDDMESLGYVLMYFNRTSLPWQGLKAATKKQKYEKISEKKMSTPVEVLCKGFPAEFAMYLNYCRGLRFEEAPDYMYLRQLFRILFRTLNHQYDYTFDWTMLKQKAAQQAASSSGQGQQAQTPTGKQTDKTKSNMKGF
Sequence of GRK6 (human) (P43250 whole entry, looked up): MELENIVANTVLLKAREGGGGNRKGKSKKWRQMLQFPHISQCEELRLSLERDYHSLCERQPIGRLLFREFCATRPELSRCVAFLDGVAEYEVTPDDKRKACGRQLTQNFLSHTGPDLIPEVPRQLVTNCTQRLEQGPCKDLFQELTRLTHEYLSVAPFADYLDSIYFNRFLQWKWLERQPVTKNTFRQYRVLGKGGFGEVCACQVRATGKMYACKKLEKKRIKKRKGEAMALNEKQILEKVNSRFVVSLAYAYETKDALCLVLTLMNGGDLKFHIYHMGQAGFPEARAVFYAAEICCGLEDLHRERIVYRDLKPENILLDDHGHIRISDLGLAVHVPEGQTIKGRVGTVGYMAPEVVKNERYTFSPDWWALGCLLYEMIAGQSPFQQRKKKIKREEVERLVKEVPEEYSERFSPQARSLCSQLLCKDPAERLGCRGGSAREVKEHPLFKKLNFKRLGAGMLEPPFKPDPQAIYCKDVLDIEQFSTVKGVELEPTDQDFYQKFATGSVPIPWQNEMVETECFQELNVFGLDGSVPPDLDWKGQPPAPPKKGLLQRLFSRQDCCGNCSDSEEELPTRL

`O=c1c2cc(CS(=O)(=O)NCc3ccccn3)ccc2ccc2ncc(C3CCNCC3)cc12` had an IC50 on MET (human) [1] of 1 nM. The inhibition at MET (human) [2] (compound 0.01 µM) was found to be 94.7%; on MET (human) [2] (compound 0.1 µM), 99.3%.
Turning to `Cn1cc(-c2cnc3ccc4ccc(CC(=O)NCc5ccccn5)cc4c(=O)c3c2)cn1`, the inhibition came out at 5.1% at CSNK1A1 (human) (compound 0.1 µM); 4.8% at CSNK1A1 (human) (compound 1.0 µM); 13.3% on CSNK1A1 (human) (compound 10.0 µM); 12.8% against ACVR1B (human) (compound 0.1 µM); 12.6% against ACVR1B (human) (compound 1.0 µM); 10.1% on ACVR1B (human) (compound 10.0 µM). For the same molecule, the inhibition at PRKCQ (human) (compound 0.1 µM) turned out to be 7.2%; against PRKCQ (human) (compound 1.0 µM), 7.1%; at PRKCQ (human) (compound 10.0 µM) it was 7.7%; against KDR (human) (compound 0.1 µM), 20%; on KDR (human) (compound 1.0 µM), 54.7%; at KDR (human) (compound 10.0 µM), 93.9%. The inhibition at NTRK3 (human) (compound 0.1 µM) is 18.8%; against NTRK3 (human) (compound 1.0 µM), 34.5%; against NTRK3 (human) (compound 10.0 µM), 77.1%; at KIT (human) (compound 0.1 µM), 9.7%; on KIT (human) (compound 1.0 µM) it was 13.2%; at KIT (human) (compound 10.0 µM), 48.1%. The inhibition against INSR (human) (compound 0.1 µM) is 9.9%; on INSR (human) (compound 1.0 µM), 7.3%; at INSR (human) (compound 10.0 µM), 0.6%; on PAK1 (human) (compound 0.1 µM), 19.6%; against PAK1 (human) (compound 1.0 µM), 18.5%; against PAK1 (human) (compound 10.0 µM), -12.1%. The inhibition against GSK3B (human) (compound 0.1 µM) is 7.3%; on GSK3B (human) (compound 1.0 µM), 8.1%; against GSK3B (human) (compound 10.0 µM) it was 64%; against NEK2 (human) (compound 0.1 µM) it was 15.7%; at NEK2 (human) (compound 1.0 µM), 9.8%; against NEK2 (human) (compound 10.0 µM), -56.3%. For the same molecule, the inhibition against GRK6 (human) (compound 0.1 µM) was 5.6%; on GRK6 (human) (compound 1.0 µM), 7%; against GRK6 (human) (compound 10.0 µM), 13.4%; against PLK1 (human) (compound 0.1 µM), 8.9%; on PLK1 (human) (compound 1.0 µM), 11.2%; against PLK1 (human) (compound 10.0 µM), 10%. For the same molecule, the inhibition on SRPK1 (human) (compound 0.1 µM) came to 11.1%; at SRPK1 (human) (compound 1.0 µM) it was 11.5%; against SRPK1 (human) (compound 10.0 µM) it was 12.5%; against MAPKAPK2 (human) (compound 0.1 µM), 9.5%; against MAPKAPK2 (human) (compound 1.0 µM), 7.8%; at MAPKAPK2 (human) (compound 10.0 µM) it was 19.8%. The inhibition on PIM1 (human) (compound 0.1 µM) is 6%; against PIM1 (human) (compound 1.0 µM) it was 5.4%; against PIM1 (human) (compound 10.0 µM), 23.6%; on CHEK1 (human) (compound 0.1 µM) it was 23.2%; against CHEK1 (human) (compound 1.0 µM), -1.2%; on CHEK1 (human) (compound 10.0 µM) it was 14.2%. In addition, the inhibition against MAP2K1 (human) (compound 0.1 µM) was 25.7%; against MAP2K1 (human) (compound 1.0 µM) it was 23.8%; against MAP2K1 (human) (compound 10.0 µM), 13.5%; at MAPK1 (human) (compound 0.1 µM) it was 12.7%; at MAPK1 (human) (compound 1.0 µM), 8.8%; at MAPK1 (human) (compound 10.0 µM), -8.1%. The inhibition at AKT1 (human) (compound 0.1 µM) worked out at 17.2%; against AKT1 (human) (compound 1.0 µM), 5.5%; at AKT1 (human) (compound 10.0 µM) it was 9.1%; against AKT3 (human) (compound 0.1 µM) it was 11.3%; against AKT3 (human) (compound 1.0 µM) it was 10.6%; at AKT3 (human) (compound 10.0 µM), 14.6%. Besides, the figures for the inhibition against EGFR (human) (compound 0.1 µM), on EGFR (human) (compound 1.0 µM) and on EGFR (human) (compound 10.0 µM) were 0.5%, 0.6% and 7.1%, respectively.
Molecule `O=C(CCc1ccc2ccc3ncc(C4CCNCC4)cc3c(=O)c2c1)NCc1ccccn1` yielded an IC50 against MET (human) [1] of 85 nM. In addition, the inhibition on DAPK3 (human) (compound 0.1 µM) was -1.7%; at DAPK3 (human) (compound 1.0 µM) it was -4.5%; at MET (human) [2] (compound 0.1 µM), 74.1%; at MET (human) [2] (compound 1.0 µM) it was 95.7%; in assay [3] (compound 0.1 µM), -3.3%; in assay [3] (compound 1.0 µM), -4.9%. The inhibition in assay [4] (compound 0.1 µM) was 5.1%; in [4] (compound 1.0 µM), -1.5%; in assay [5] (compound 0.1 µM), 1.1%; in [5] (compound 1.0 µM), 2.7%; on JAK2 JH1 JH2 (human) (compound 0.1 µM) it was -2.8%; on JAK2 JH1 JH2 (human) (compound 1.0 µM), 5.9%. Further, the inhibition on MST1R (human) (compound 0.1 µM) is -3.6%; on MST1R (human) (compound 1.0 µM) it was 20.5%.
Take `Cn1cc(-c2cnc3ccc4ccc(CS(=O)(=O)NC5CCCCC5)cc4c(=O)c3c2)cn1`: the inhibition at DAPK3 (human) (compound 0.01 µM) was -1.6%; at DAPK3 (human) (compound 0.1 µM), 0.3%; in [3] (compound 0.01 µM), 1.3%; in assay [3] (compound 0.1 µM) it was -4.9%; in [4] (compound 0.01 µM) it was 2.9%; in assay [4] (compound 0.1 µM) it was -0.1%. In addition, the inhibition in [5] (compound 0.01 µM) stood at 14.9%; in assay [5] (compound 0.1 µM), 1%; on JAK2 JH1 JH2 (human) (compound 0.01 µM), 8.9%; on JAK2 JH1 JH2 (human) (compound 0.1 µM), 11.9%; on MST1R (human) (compound 0.01 µM), 11.8%; at MST1R (human) (compound 0.1 µM), 37.6%.
Consider `CN(c1ccc2ccc3ncc(-c4cnn(C)c4)cc3c(=O)c2c1)S(=O)(=O)NCc1ccccn1`, for which the inhibition on DAPK3 (human) (compound 0.1 µM) stood at 5%; on DAPK3 (human) (compound 1.0 µM) it was 10.3%; in assay [3] (compound 0.1 µM), 0.2%; in assay [3] (compound 1.0 µM) it was 21.4%; in assay [4] (compound 0.1 µM) it was 3.4%; in assay [4] (compound 1.0 µM), 17.6%. In addition, the inhibition in assay [5] (compound 0.1 µM) is 10.2%; in assay [5] (compound 1.0 µM), 43.4%; at JAK2 JH1 JH2 (human) (compound 0.1 µM), -35.1%; on JAK2 JH1 JH2 (human) (compound 1.0 µM), 41.2%; on MST1R (human) (compound 0.1 µM), 23.8%; at MST1R (human) (compound 1.0 µM) it was 78.2%.
